Source: patent publication US20240058422A1, “GLUCAGON-LIKE PEPTIDE-1 RECEPTOR ANTAGONISTS” (INDIANA UNIVERSITY RESEARCH AND TECHNOLOGY CORPORATION, priority 2022, published 2024)
In brackets after ≈: the same amount, converted by molar mass. Read-outs that look alike come from different tables or passages of the source. Starred links: 1 amine or outer side, 2 acyl side, 3 side chain; linkers in the order of their positions; H or OH if unused. Non-standard residues stand in square brackets, D forms with d. Residues, ends and D or L forms follow the SMILES beside them. Groups on a side chain read outwards from the residue. *: point of attachment. γGlu = O=C(O)[C@H](CCC(=O)[*:2])N[*:1]; Palmitoyl = CCCCCCCCCCCCCCCC(=O)*; AEEA = NCCOCCOCC(=O)O; Aib = CC(C)(N)C(=O)O

Assays:
[1] = physchem
[2] = biological target: GLP-1R (Homo sapiens, UniProt P43220); test: GLP-1 receptor-mediated cAMP induction, luciferase reporter gene antagonism assay; assay type: cell-based; design: host or cells: HEK 293; settings: antagonism of 0.05 nM GLP-1, HEK 293 cells
Procedure, shortened: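 HEK 293 cells cotransfected with human GLP-1 receptor and CRE-luciferase were serum-deprived 16 h, then given serial peptide dilutions followed by 0.05 nM GLP-1 and incubated 5 h at 37° C.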

[3] = pH 7.7, Solubility 80 mM AmeBicarb pH7.7
[4] = Table 3, amino acid substitution variants of Jant4-K40, read-out: Bioactivity IC50
[5] = pH 7.7, Solubility [mg/mL] 80 mM AmBicarb pH7.7
[6] = pH 7.7, Solubility [mg/mL] PBS pH7.7
[7] = Table 4, Aib variants of 9-40am Jant4 K40[C16], read-out: Bioactivity IC50

Chain of GLP-1R (P43220 24-463): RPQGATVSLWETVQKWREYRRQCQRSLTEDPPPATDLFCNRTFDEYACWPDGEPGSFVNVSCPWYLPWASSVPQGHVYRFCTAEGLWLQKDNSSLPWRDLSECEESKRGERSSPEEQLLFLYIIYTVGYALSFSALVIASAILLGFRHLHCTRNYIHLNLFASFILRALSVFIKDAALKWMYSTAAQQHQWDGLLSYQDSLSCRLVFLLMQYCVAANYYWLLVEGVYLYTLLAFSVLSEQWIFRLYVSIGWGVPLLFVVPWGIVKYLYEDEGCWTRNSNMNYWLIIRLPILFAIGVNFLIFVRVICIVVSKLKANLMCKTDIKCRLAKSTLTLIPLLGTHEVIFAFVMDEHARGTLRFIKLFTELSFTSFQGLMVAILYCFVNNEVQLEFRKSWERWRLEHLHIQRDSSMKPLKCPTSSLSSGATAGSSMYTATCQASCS

| SMILES | solubility [1, 3] [mg/mL] | IC50 [2, 4] [µM] | solubility [1, 5] [mg/mL] | solubility [1, 6] [mg/mL] | IC50 [2, 7] [µM] | further results |
| --- | --- | --- | --- | --- | --- | --- |
| CCCCCCCCCCCCCCCC(=O)NCCCC[C@H](NC(=O)[C@H](CO)NC(=O)[C@@H]1CCCN1C(=O)[C@@H]1CCCN1C(=O)[C@@H]1CCCN1C(=O)[C@H](C)NC(=O)CNC(=O)[C@H](CO)NC(=O)[C@H](CO)NC(=O)[C@@H]1CCCN1C(=O)CNC(=O)CNC(=O)[C@H](CCCNC(=N)N)NC(=O)[C@@H](NC(=O)[C@H](CC(C)C)NC(=O)[C@H](Cc1c[nH]c2ccccc12)NC(=O)[C@H](C)NC(=O)[C@@H](NC(=O)[C@H](Cc1ccccc1)NC(=O)[C@H](CCC(=O)O)NC(=O)[C@H](CCCNC(=N)N)NC(=O)[C@@H](NC(=O)[C@H](C)NC(=O)[C@H](CCC(N)=O)NC(=O)[C@H](CCC(=O)O)NC(=O)[C@H](CCC(=O)O)NC(=O)[C@H](CC(C)C)NC(=O)[C@H](Cc1ccc(O)cc1)NC(=O)[C@H](CO)NC(=O)[C@H](CO)NC(=O)[C@@H](NC(=O)[C@@H](N)CC(=O)O)C(C)C)C(C)C)[C@@H](C)CC)C(C)C)C(N)=O [compound 69] (H-DVSSYLEEQAVREFIAWLVRGGPSSGAPPPSK(Palmitoyl)-NH2) | 13.7 (≈ 3.73 mM) | 0.016 | – | – | – | – |
| CCCCCCCCCCCCCCCC(=O)NCCCC[C@H](NC(=O)[C@H](CO)NC(=O)[C@@H]1CCCN1C(=O)[C@@H]1CCCN1C(=O)[C@@H]1CCCN1C(=O)[C@H](C)NC(=O)CNC(=O)[C@H](CO)NC(=O)[C@H](CO)NC(=O)[C@@H]1CCCN1C(=O)CNC(=O)CNC(=O)C(C)(C)NC(=O)[C@H](CCCCN)NC(=O)[C@H](CC(C)C)NC(=O)[C@H](Cc1c[nH]c2ccccc12)NC(=O)[C@H](C)NC(=O)[C@@H](NC(=O)[C@H](Cc1ccccc1)NC(=O)[C@H](CCC(=O)O)NC(=O)[C@H](CCCNC(=N)N)NC(=O)[C@@H](NC(=O)[C@H](C)NC(=O)[C@H](CCC(N)=O)NC(=O)[C@H](CCC(=O)O)NC(=O)[C@H](CCC(=O)O)NC(=O)[C@H](CC(C)C)NC(=O)[C@H](Cc1ccc(O)cc1)NC(=O)[C@H](CO)NC(=O)[C@H](CO)NC(=O)[C@@H](NC(=O)[C@@H](N)CC(=O)O)C(C)C)C(C)C)[C@@H](C)CC)C(N)=O [SEQ ID NO: 43] | – | – | 18.9 (≈ 5.21 mM) | 0.2 (≈ 0.0552 mM) | 0.013 | – |
| CCCCCCCCCCCCCCCC(=O)NCCCC[C@H](NC(=O)[C@H](CO)NC(=O)[C@@H]1CCCN1C(=O)[C@@H]1CCCN1C(=O)[C@@H]1CCCN1C(=O)[C@H](C)NC(=O)CNC(=O)[C@H](CO)NC(=O)[C@H](CO)NC(=O)[C@@H]1CCCN1C(=O)CNC(=O)CNC(=O)[C@H](CCCNC(=N)N)NC(=O)[C@@H](NC(=O)[C@H](CC(C)C)NC(=O)[C@H](Cc1c[nH]c2ccccc12)NC(=O)[C@H](C)NC(=O)[C@@H](NC(=O)[C@H](Cc1ccccc1)NC(=O)[C@H](CCC(=O)O)NC(=O)[C@H](CCCNC(=N)N)NC(=O)[C@@H](NC(=O)[C@H](C)NC(=O)[C@H](CCC(N)=O)NC(=O)[C@H](CCC(=O)O)NC(=O)[C@H](CCC(=O)O)NC(=O)[C@H](CC(C)C)NC(=O)[C@H](Cc1ccc(O)cc1)NC(=O)[C@H](CCCNC(=N)N)NC(=O)[C@H](CO)NC(=O)[C@@H](NC(=O)[C@@H](N)CC(=O)O)C(C)C)C(C)C)[C@@H](C)CC)C(C)C)C(N)=O [compound 73] (H-DVSRYLEEQAVREFIAWLVRGGPSSGAPPPSK(Palmitoyl)-NH2; N-terminus assumed) | < 0.1 | 0.027 | – | – | – | – |
| CCCCCCCCCCCCCCCC(=O)N[C@@H](CCC(=O)NCCOCCOCC(=O)NCCCC[C@H](NC(=O)[C@H](CO)NC(=O)[C@@H]1CCCN1C(=O)[C@@H]1CCCN1C(=O)[C@@H]1CCCN1C(=O)[C@H](C)NC(=O)CNC(=O)[C@H](CO)NC(=O)[C@H](CO)NC(=O)[C@@H]1CCCN1C(=O)CNC(=O)CNC(=O)[C@H](CCCNC(=N)N)NC(=O)[C@@H](NC(=O)[C@H](CC(C)C)NC(=O)[C@H](Cc1c[nH]c2ccccc12)NC(=O)[C@H](C)NC(=O)[C@@H](NC(=O)[C@H](Cc1ccccc1)NC(=O)[C@H](CCC(=O)O)NC(=O)[C@H](CCCNC(=N)N)NC(=O)[C@@H](NC(=O)[C@H](C)NC(=O)[C@H](CCC(N)=O)NC(=O)[C@H](CCC(=O)O)NC(=O)[C@H](CCC(=O)O)NC(=O)[C@H](CC(C)C)NC(=O)[C@H](Cc1ccc(O)cc1)NC(=O)[C@H](CO)NC(=O)[C@H](CO)NC(=O)[C@@H](NC(=O)[C@@H](N)CC(=O)O)C(C)C)C(C)C)[C@@H](C)CC)C(C)C)C(=O)O)C(=O)O [compound 77] (H-DVSSYLEEQAVREFIAWLVRGGPSSGAPPPSK([AEEA-γGlu-Palmitoyl])-OH) | > 20 | 0.013 | – | – | – | – |
| CCCCCCCCCCCCCCCC(=O)NCCCC[C@H](NC(=O)[C@H](CO)NC(=O)[C@@H]1CCCN1C(=O)[C@@H]1CCCN1C(=O)[C@@H]1CCCN1C(=O)[C@H](C)NC(=O)CNC(=O)[C@H](CO)NC(=O)[C@H](CO)NC(=O)[C@@H]1CCCN1C(=O)CNC(=O)CNC(=O)[C@H](CCCCN)NC(=O)[C@@H](NC(=O)[C@H](CC(C)C)NC(=O)[C@H](Cc1c[nH]c2ccccc12)NC(=O)[C@H](C)NC(=O)[C@@H](NC(=O)[C@H](Cc1ccccc1)NC(=O)[C@H](CCC(=O)O)NC(=O)[C@H](CCCNC(=N)N)NC(=O)[C@H](NC(=O)[C@H](C)NC(=O)[C@H](CCC(N)=O)NC(=O)[C@H](CCC(=O)O)NC(=O)[C@H](CCC(=O)O)NC(=O)[C@H](CC(C)C)NC(=O)[C@H](Cc1ccc(O)cc1)NC(=O)[C@H](CO)NC(=O)[C@H](CO)NC(=O)[C@@H](NC(=O)[C@@H](N)CC(=O)O)C(C)C)C(C)C)[C@@H](C)CC)C(C)C)C(N)=O [compound 50] (H-DVSSYLEEQA[dV]REFIAWLVKGGPSSGAPPPSK(Palmitoyl)-NH2) | – | – | – | – | – | solubility ([1]; pH 7.7, Solubility [mg/mL] 80 mM/AmBicarb pH7.7): > 20 mg/mL; IC50 ([2]; Table 5, d-AA variants of 9-40am Jant4 K40[C16], read-out: Bioactivity KC50): 0.124 µM |
| CCCCCCCCCCCCCCCC(=O)NCCCC[C@H](NC(=O)[C@H](CO)NC(=O)[C@@H]1CCCN1C(=O)[C@@H]1CCCN1C(=O)[C@@H]1CCCN1C(=O)[C@H](C)NC(=O)CNC(=O)[C@H](CO)NC(=O)[C@H](CO)NC(=O)[C@@H]1CCCN1C(=O)CNC(=O)CNC(=O)[C@H](CCCCN)NC(=O)C(C)(C)NC(=O)[C@H](CC(C)C)NC(=O)[C@H](Cc1c[nH]c2ccccc12)NC(=O)[C@H](C)NC(=O)[C@@H](NC(=O)[C@H](Cc1ccccc1)NC(=O)[C@H](CCC(=O)O)NC(=O)[C@H](CCCNC(=N)N)NC(=O)[C@@H](NC(=O)[C@H](C)NC(=O)[C@H](CCC(N)=O)NC(=O)[C@H](CCC(=O)O)NC(=O)[C@H](CCC(=O)O)NC(=O)[C@H](CC(C)C)NC(=O)[C@H](Cc1ccc(O)cc1)NC(=O)[C@H](CO)NC(=O)[C@H](CO)NC(=O)[C@@H](NC(=O)[C@@H](N)CC(=O)O)C(C)C)C(C)C)[C@@H](C)CC)C(N)=O [compound 81] (H-DVSSYLEEQAVREFIAWL[Aib]KGGPSSGAPPPSK(Palmitoyl)-NH2) | – | – | 19 (≈ 5.24 mM) | 1.6 (≈ 0.441 mM) | 0.023 | – |
| CCCCCCCCCCCCCCCC(=O)NCCCC[C@H](NC(=O)[C@H](CO)NC(=O)[C@@H]1CCCN1C(=O)[C@@H]1CCCN1C(=O)[C@@H]1CCCN1C(=O)[C@H](C)NC(=O)CNC(=O)[C@H](CO)NC(=O)[C@H](CO)NC(=O)[C@@H]1CCCN1C(=O)CNC(=O)CNC(=O)C(C)(C)NC(=O)[C@@H](NC(=O)[C@H](CCCCN)NC(=O)[C@H](Cc1c[nH]c2ccccc12)NC(=O)[C@H](C)NC(=O)[C@@H](NC(=O)[C@H](Cc1ccccc1)NC(=O)[C@H](CCC(=O)O)NC(=O)[C@H](CCCNC(=N)N)NC(=O)[C@@H](NC(=O)[C@H](C)NC(=O)[C@H](CCC(N)=O)NC(=O)[C@H](CCC(=O)O)NC(=O)[C@H](CCC(=O)O)NC(=O)[C@H](CC(C)C)NC(=O)[C@H](Cc1ccc(O)cc1)NC(=O)[C@H](CO)NC(=O)[C@H](CO)NC(=O)[C@@H](NC(=O)[C@@H](N)CC(=O)O)C(C)C)C(C)C)[C@@H](C)CC)C(C)C)C(N)=O [compound 82] (H-DVSSYLEEQAVREFIAWKV[Aib]GGPSSGAPPPSK(Palmitoyl)-NH2) | – | – | 14.2 (≈ 3.93 mM) | 0.1 (≈ 0.0277 mM) | 0.006 | – |
| CCCCCCCCCCCCCCCC(=O)N[C@@H](CCC(=O)NCCOCCOCC(=O)NCCCC[C@H](NC(=O)[C@H](CO)NC(=O)[C@@H]1CCCN1C(=O)[C@@H]1CCCN1C(=O)[C@@H]1CCCN1C(=O)[C@H](C)NC(=O)CNC(=O)[C@H](CO)NC(=O)[C@H](CO)NC(=O)[C@@H]1CCCN1C(=O)CNC(=O)CNC(=O)[C@@H](NC(=O)[C@H](CCCNC(=N)N)NC(=O)[C@H](CC(C)C)NC(=O)[C@H](Cc1c[nH]c2ccccc12)NC(=O)[C@H](CCC(=O)O)NC(=O)[C@@H](NC(=O)[C@H](Cc1ccccc1)NC(=O)[C@H](CCC(=O)O)NC(=O)[C@H](CCCNC(=N)N)NC(=O)[C@@H](NC(=O)[C@H](C)NC(=O)[C@H](CCC(N)=O)NC(=O)[C@H](CCC(=O)O)NC(=O)[C@H](CCC(=O)O)NC(=O)[C@H](CC(C)C)NC(=O)[C@H](Cc1ccc(O)cc1)NC(=O)[C@H](CO)NC(=O)[C@H](CO)NC(=O)[C@@H](NC(=O)[C@@H](N)CC(=O)O)C(C)C)C(C)C)[C@@H](C)CC)C(C)C)C(=O)O)C(=O)O [compound 79] | > 20 | – | – | – | – | – |
| CCCCCCCCCCCCCCCC(=O)N[C@@H](CCC(=O)NCCOCCOCC(=O)NCCCC[C@H](NC(=O)[C@H](CO)NC(=O)[C@@H]1CCCN1C(=O)[C@@H]1CCCN1C(=O)[C@@H]1CCCN1C(=O)[C@H](C)NC(=O)CNC(=O)[C@H](CO)NC(=O)[C@H](CO)NC(=O)[C@@H]1CCCN1C(=O)CNC(=O)CNC(=O)[C@H](CCCNC(=N)N)NC(=O)[C@@H](NC(=O)[C@H](CC(C)C)NC(=O)[C@H](Cc1c[nH]c2ccccc12)NC(=O)[C@H](CCC(=O)O)NC(=O)[C@@H](NC(=O)[C@H](Cc1ccccc1)NC(=O)[C@H](CCC(=O)O)NC(=O)[C@H](CCCNC(=N)N)NC(=O)[C@@H](NC(=O)[C@H](C)NC(=O)[C@H](CCC(N)=O)NC(=O)[C@H](CCC(=O)O)NC(=O)[C@H](CCC(=O)O)NC(=O)[C@H](CC(C)C)NC(=O)[C@H](Cc1ccc(O)cc1)NC(=O)[C@H](CCCNC(=N)N)NC(=O)[C@H](CO)NC(=O)[C@@H](NC(=O)[C@@H](N)CC(=O)O)C(C)C)C(C)C)[C@@H](C)CC)C(C)C)C(=O)O)C(=O)O [compound 16] (H-DVSRYLEEQAVREFIEWLVRGGPSSGAPPPSK([AEEA-γGlu-Palmitoyl])-OH; N-terminus assumed) | > 20 | 0.018 | – | – | – | – |
